Assay results: ChEMBL document CHEMBL1201862, “PubChem BioAssay data set” (2004)
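Tested at 5 concentrations; 48 h exposure; 96-well plates; endpoints linearly interpolated, else capped at highest concentration. GI50 = concentration required for 50% inhibition of growth.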 Active and inactive are the calls of the source. Rule as the data show it: active = GI50 up to about 1.1 µM and inactive = higher.

Assays:
Assay in all cases: NCI tumour cell line growth inhibition, 48 h
COLO 205 = test system: COLO 205
OVCAR-4 = test system: OVCAR-4
KM12 = test system: KM12
UACC-62 = test system: UACC-62
UO-31 = test system: UO-31
NCI-H460 = test system: NCI-H460
SF-539 = test system: SF-539
OVCAR-5 = test system: OVCAR-5
EKVX = test system: EKVX
CAKI-1 = test system: CAKI-1
RPMI-8226 = test system: RPMI-8226
UACC-257 = test system: UACC-257
HCT-15 = test system: HCT-15
A498 = test system: A498
PC-3 = test system: PC-3
MCF7 = test system: MCF7
SF-295 = test system: SF-295
IGROV-1 = test system: IGROV-1
SR = test system: SR
MOLT-4 = test system: MOLT-4

Structure (SMILES) | GI50 (COLO 205) | GI50 (OVCAR-4) | GI50 (KM12) | GI50 (UACC-62) | GI50 (UO-31) | GI50 (NCI-H460) | GI50 (SF-539) | GI50 (OVCAR-5) | GI50 (EKVX) | GI50 (CAKI-1) | GI50 (RPMI-8226) | GI50 (UACC-257) | GI50 (HCT-15) | GI50 (A498) | GI50 (PC-3) | GI50 (MCF7) | GI50 (SF-295) | GI50 (IGROV-1) | GI50 (SR) | GI50 (MOLT-4)
Cc1ccc(C(=O)Nc2ccc(CP(=O)(O)O)cc2)cc1NC(=O)c1cccc(NC(=O)Nc2cccc(C(=O)Nc3cc(C(=O)Nc4ccc(CP(=O)(O)O)cc4)ccc3C)c2)c1 | > 100 µM (inactive) | > 100 µM (inactive) | > 100 µM (inactive) | > 100 µM (inactive) | > 100 µM (inactive) | > 100 µM (inactive) | > 100 µM (inactive) | > 100 µM (inactive) | > 100 µM (inactive) | > 100 µM (inactive) | > 100 µM (inactive) | > 100 µM (inactive) | > 100 µM | > 100 µM (inactive) | > 100 µM (inactive) | > 100 µM (inactive) | > 100 µM (inactive) | > 100 µM (inactive) |  | 
CC1[C@@]2(CCC(C)(C)O2)O[C@@H]2C=C3C4CCC5Cc6nc7c(nc6C[C@@]5(C)C4C[C@H](O)[C@@]3(C)[C@]12O)CC1CCC2C3=C[C@H]4O[C@@]5(O[C@@](C)(CO)C[C@@H]5O)C(C)[C@@]4(O)[C@]3(C)[C@@H](O)CC2[C@]1(C)C7 (stereo partly drawn) | 0.163 µM (active) | 0.723 µM (active) | 0.109 µM (active) | 0.0508 µM (active) | 0.047 µM (active) | 0.0388 µM (active) | 0.00847 µM (active) | 0.142 µM (active) | 0.175 µM (active) | 0.111 µM (active) | 0.00653 µM (active) | 0.138 µM (active) | 0.169 µM | 0.0313 µM (active) |  | 0.00959 µM (active) | 0.00807 µM (active) | 0.248 µM (active) | 0.0264 µM (active) | 0.0217 µM (active)
O=C(CC(C(=O)c1ccco1)c1ccsc1)c1ccco1 (stereo not drawn) | > 100 µM (inactive) | 75.2 µM (inactive) | > 100 µM (inactive) | 90.4 µM (inactive) | 58.9 µM (inactive) | 71.1 µM (inactive) | > 100 µM (inactive) | > 100 µM (inactive) | > 100 µM (inactive) | > 100 µM (inactive) | > 100 µM (inactive) | > 100 µM (inactive) | > 100 µM | > 100 µM (inactive) |  | > 100 µM (inactive) | > 100 µM (inactive) | > 100 µM (inactive) | 67.8 µM (inactive) | 37.4 µM (inactive)
Cn1ccnc1SC(F)(F)c1nc2ccccc2o1 | > 100 µM (inactive) | > 100 µM (inactive) | > 100 µM (inactive) | > 100 µM (inactive) | > 100 µM (inactive) | > 100 µM (inactive) | > 100 µM (inactive) | > 100 µM (inactive) |  | > 100 µM (inactive) | > 100 µM (inactive) | > 100 µM (inactive) | > 100 µM | > 100 µM (inactive) | > 100 µM (inactive) | > 100 µM (inactive) | > 100 µM (inactive) | > 100 µM (inactive) |  | > 100 µM (inactive)
CSc1nc(Cl)c(Br)c(Nc2cnc(O)nc2O)n1 | 16.8 µM (inactive) | 15.6 µM (inactive) | 22.8 µM (inactive) | 15.2 µM (inactive) | 20.3 µM (inactive) |  | 20.1 µM (inactive) |  | 15.3 µM (inactive) | 1.79 µM (inactive) | 28.3 µM (inactive) | 19.2 µM (inactive) | 7.41 µM | 11.6 µM (inactive) | 18.8 µM (inactive) | 38 µM (inactive) | 18.9 µM (inactive) | 6.34 µM (inactive) |  | 13.4 µM (inactive)
CC(=O)OC12OC(C)(C3C(=O)N(c4ccccc4)C(=O)C31)N(c1ccccc1)C2=O (stereo not drawn) | > 100 µM (inactive) | 51.4 µM (inactive) | > 100 µM (inactive) | > 100 µM (inactive) | > 100 µM (inactive) | > 100 µM (inactive) | > 100 µM (inactive) | > 100 µM (inactive) | 84.7 µM (inactive) | > 100 µM (inactive) |  | 16.7 µM (inactive) | > 100 µM |  | 69.3 µM (inactive) | > 100 µM (inactive) | > 100 µM (inactive) | > 100 µM (inactive) | > 100 µM (inactive) | > 100 µM (inactive)
N=C1N(/N=C/c2ccccn2)/C(=N\c2ccccc2)C(=S)N1c1ccccc1 | 1.42 µM (inactive) | 11.7 µM (inactive) | 4.01 µM (inactive) | 1.17 µM (inactive) | 4.37 µM (inactive) | 4.15 µM (inactive) | 3.77 µM (inactive) | 4.74 µM (inactive) | 3.41 µM (inactive) | 6.44 µM (inactive) | > 100 µM (inactive) | 9.27 µM (inactive) | 2.54 µM | 19.4 µM (inactive) | 3.57 µM (inactive) |  | 5.81 µM (inactive) | 5.05 µM (inactive) | > 100 µM (inactive) | > 100 µM (inactive)
